Several values for one entry are separate records, joined by “and”; a condition that tells them apart may be missing. Equal entries are not always repeated. Where two headings read alike, the source gives them in different places.
Experiments:
[1] = PAMPA passive permeability pH 7.4; conditions: pH 7.4, passive permeability Pe
Measured logD7.4 = format: physicochemical; conditions: pH 7.4
SU-DHL-6 = assay: 14 day cell viability assay (CellTiter Glo); format: cell-based; conditions: Homo sapiens, BCL6-high, 14 days of treatment
SU-DHL-4 = assay: 14 day cell viability assay (CellTiter Glo); format: cell-based; conditions: Homo sapiens, BCL6-high, 14 days of treatment
OCI-Ly3 = assay: 14 day cell viability assay (CellTiter Glo); format: cell-based; conditions: Homo sapiens, BCL6-low, 14 days of treatment
MM.1S = assay: 14 day cell viability assay (CellTiter Glo); format: cell-based; conditions: Homo sapiens, MM1.S; BCL6-low, 14 days of treatment
BCL6 BTB domain [2] = target: T1, BCL6 BTB domain (Homo sapiens, UniProt P41182); assay: biochemical
Protocol: Supplementary experimental: protein production, purification and crystallography
3C protease cleavage site.
used without cleaving the tag, as a 6His was needed to bind to the anti-6His-Terbium antibody. For
For both plasmid constructs described above, transformed BL21-AI E. coli cells were grown in LB
carried out at 18 °C for 18 hours. Cells were harvested by centrifugation (5500 g for 30 minutes at 4
oC) and stored at -80 °C.
Cells were re-suspended in a buffer composed of 20 mM Tris pH 8, 250 mM NaCl, 1 mM MgCl2, 0.5
Cells were lysed by sonication followed by centrifugation at 21,000 g for 45 minutes at 4 °C. […]
The final protein was assessed for purity
and molar mass by SDS-PAGE and high-resolution mass spectrometry, respectively.
directly eluted from the HisTrap FF column without HRV-3C treatment, and submitted to Superdex75
gel filtration as described above. […]
2. Supplementary experimental: biological assay conditions
IC50 values were determined using
a sigmoidal four-parameter logistic fit equation.

[3] = Protein binding by equilibrium dialysis; format: in vitro ADME, mouse
[4] = In vivo pharmacokinetic study in female Balb/c mice; conditions: mouse; for Cmax: blood
Protocol: 5. Supplementary experimental: in vivo PK and PD experiments
All procedures were in accordance with UK Home Office regulations under the Animals (Scientific […]
accordance with published guidelines17. Mice were allowed access to food and water ad libitum.
5.1In vivo pharmacokinetic studies
All experiments were conducted in accordance with the UKCC guidelines for animal experimentations17. Animals were adapted to laboratory conditions for at least 1 week prior to dosing and were allowed food and water ad libitum. CCT369347 (25) was administered iv or po (mouse, 0.1 mL/10 g in 10% DMSO, 5% tween 20 in saline); Blood samples were collected in […]
collection together with a standard curve and quality controls spiked in control blood. Samples were reconstituted in a Water:MeOH mixture containing internal standard as previously described […]
Following centrifugation, extracts were analyzed by multiple reaction monitoring of precursor and product ions by ESI-LCMS/MS on either a Waters (Milford, MA, USA) Xevo TQ-S or Sciex (Framingham, MA, USA) QTrap6500 following gradient separation with 0.1% […]
Quantitation was carried out with an external calibration. Quality controls were […]
Pharmacokinetic parameters were derived from noncompartmental analysis using Phoenix Pharsight. Non compartmental analysis (model 200

OCI-Ly1 = assay: 14 day cell viability assay (CellTiter Glo); format: cell-based; conditions: Homo sapiens, BCL6-high, 14 days of treatment
NMR solubility assay = format: physicochemical; conditions: HEPES buffer, 5% DMSO, room temperature
Protocol: 3. Supplementary experimental: physicochemical assays
The plate was then sealed and incubated at room temperature for 20 hours, without shaking. The plate was centrifuged again for 1 minute at […]
spectrometer equipped with a 5 mm TCI-CryoProbe. […]
deuterated solvent. […] All NMR data were acquired at the […]
contained 16k time-domain data points. Relaxation delay was set to 20 sec. […]

BCL6 BTB domain [5] = target: T1, BCL6 BTB domain; assay: SPR assay, immobilised BCL6 BTB protein (Biacore T200); format: binding; set-up: made in house; host or cells: E. coli BL21-AI
[6] = female, Balb/c, whole blood, iv, 1 mg/kg, IV 1 mg/kg, individual animals
[7] = female, Balb/c, whole blood, po, 5 mg/kg, PO 5 mg/kg, individual animals
[8] = IV 1 mg/kg, individual animals, 1 mg/kg
[9] = PO 5 mg/kg, individual animals, 5 mg/kg

In the case of `Cn1c(=O)cc(NC(C)(C)c2ncc(C3CC3)cn2)c2cc(Nc3ccnc(Cl)c3C#N)ccc21` [Compound 25, 2-Chloro-4-((4-((2-(5-cyclopropylpyrimidin-2-yl)propan-2-yl)amino)-1-methyl-2-oxo-1,2-dihydroquinolin-6-yl)amino)nicotinonitrile], the PAMPA7.4 [1] is reported as 35 x10^-6 cms^-1, the logD (Measured logD7.4) is reported as 2.7 and the GI50 (SU-DHL-6) is reported as 2550 nM. For the same molecule, the GI50 (SU-DHL-4) was 3450 nM, the GI50 (OCI-Ly3) was over 10000 nM and the GI50 (MM.1S) was over 10000 nM. The IC50 (BCL6 BTB domain [2]; BCL6 TR-FRET Geo Mean IC50, geometric mean of n replicates, supplement) was 30 nM, the IC50 (BCL6 BTB domain [2]; TR-FRET IC50 individual replicates, single replicates, italic values used 10nM BCL6, otherwise 1nM BCL6) was 40 nM and 20 nM (2×) and 30 nM (2×) and the “BCL6 TR-FRET pIC50 mean” value (BCL6 BTB domain [2]; mean of n replicates) was 7.58 and 7.583. For the same molecule, the IC50 (BCL6 BTB domain [2]; read-out: BCL6 TR-FRET Geo Mean IC50, geometric mean of n replicates, supplement) was 26.1 nM, the “free in mouse plasma” value [3] was 1.3% and the clearance ([4]; female, Balb/c, whole blood, iv, 1 mg/kg, 1 mg kg^–1 i.v., mean, read-out: clearance (CL)) was 24 mL/min/kg. For the same molecule, the Cmax [4, 6] was 443 nM, the AUC(0-inf) [4, 6] was 1.38 µM·h and the AUC(0-t) [4, 6] was 1.28 µM·h. For the same molecule, the clearance ([4]; female, Balb/c, whole blood, iv, 1 mg/kg, IV 1 mg/kg, individual animals, read-out: CL) was 24.9 mL/min/kg, the Tmax ([4]; female, Balb/c, whole blood, iv, 1 mg/kg, IV 1 mg/kg, individual animals, read-out: Tmax) was 0.08 h and the Vd ([4]; female, Balb/c, whole blood, iv, 1 mg/kg, IV 1 mg/kg, individual animals, read-out: Vss) was 9.43 L/kg. The Cmax [4, 7] was 347 nM, the AUC(0-inf) [4, 7] was 1.44 µM·h and the AUC(0-t) [4, 7] was 1.35 µM·h. For the same molecule, the Tmax ([4]; female, Balb/c, whole blood, po, 5 mg/kg, PO 5 mg/kg, individual animals, read-out: Tmax) was 2 h, the bioavailability ([4]; female, Balb/c, whole blood, po, 5 mg kg^–1 p.o. vs 1 mg kg^–1 i.v.) was 29% and the “toxicity in PK study” value ([4]; 1 mg kg^–1 i.v. and 5 mg kg^–1 p.o.) was “no toxicity was observed”. The Cmax [4, 8] was 521 nM and 471 nM, the AUCINF [4, 8] was 1.45 µM·h and 1.416 µM·h and the AUClast [4, 8] was 1.395 µM·h and 1.344 µM·h. The CL [4, 8] was 23.7 mL/min/kg and 24.2 mL/min/kg, the HL_Lambda_z [4, 8] was 7.99 h and 5.93 h and 6.83 h and the Vss [4, 8] was 6.96 L/kg and 7.81 L/kg. For the same molecule, the Cmax [4, 9] was 382 nM and 427 nM, the AUCINF [4, 9] was 1.848 µM·h and 1.279 µM·h and the AUClast [4, 9] was 1.534 µM·h and 1.233 µM·h. For the same molecule, the HL_Lambda_z [4, 9] was 1.33 h and 2.12 h and 1.14 h, the Tmax [4, 9] was 1 h and the GI50 (OCI-Ly1) was 1680 nM. For the same molecule, the solubility at 20 h (NMR solubility assay) was 30 µM and 29 µM, the Kd (BCL6 BTB domain [5]; individual runs, Langmuir plot, 1:1 binding model, read-out: SPR KD) was 277 nM and 282 nM and 198 nM and 201 nM and the Kd (BCL6 BTB domain [5]; mean of four runs, read-out: SPR KD mean value) was 236 nM. For the same molecule, the “SPR pKd” value (BCL6 BTB domain [5]; mean, +/- SEM where printed) was 6.63.

Reference: paper PMC8667045, “Into Deep Water: Optimizing BCL6 Inhibitors by Growing into a Solvated Pocket” (Journal of Medicinal Chemistry, 2021)
